Experimental data taken from ChEMBL document CHEMBL6074670, “Discovery of NP3-253, a Potent Brain Penetrant Inhibitor of the NLRP3 Inflammasome” (J Med Chem, 2024).
Values belong to the compound of their own block, whether it stands above or below them. Active and inactive are the calls of the source. The calls are words filed in the database; no cut-off is given here.

Legend:
[1] = molecular target: Sodium-dependent serotonin transporter (Homo sapiens) (UniProt P31645); experiment: Binding affinity to 5HTT (unknown origin)
[2] = molecular target: T1, Muscarinic acetylcholine receptor M2 (Homo sapiens) (UniProt P08172); experiment: Binding affinity to M2 muscarinic receptor (unknown origin)
T1 sequence (whole entry): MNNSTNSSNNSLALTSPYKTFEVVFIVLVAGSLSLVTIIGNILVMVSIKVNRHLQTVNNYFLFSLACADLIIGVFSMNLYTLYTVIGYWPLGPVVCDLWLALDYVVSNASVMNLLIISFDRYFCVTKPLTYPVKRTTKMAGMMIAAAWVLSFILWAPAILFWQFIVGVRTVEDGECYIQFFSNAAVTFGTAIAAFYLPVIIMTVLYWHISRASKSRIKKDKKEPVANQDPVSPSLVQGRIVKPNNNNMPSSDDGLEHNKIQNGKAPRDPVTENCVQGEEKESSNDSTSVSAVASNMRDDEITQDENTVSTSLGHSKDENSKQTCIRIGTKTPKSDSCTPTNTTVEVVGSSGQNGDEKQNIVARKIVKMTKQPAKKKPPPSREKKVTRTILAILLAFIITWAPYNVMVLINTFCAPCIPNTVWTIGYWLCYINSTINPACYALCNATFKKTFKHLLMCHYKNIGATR

[3] = molecular target: NLR family CARD domain-containing protein 4 (Homo sapiens) (UniProt Q9NPP4); experiment: Inhibition of NLRC4 activation overexpressed in human THP-1 cells assessed as reduction in IL-1beta secretion preincubated for 1 hr followed by PrgI protein addition and measured after 20 hrs; type: cell-based
[4] = molecular target: NACHT, LRR and PYD domains-containing protein 3 (Mus musculus) (UniProt Q8R4B8); experiment: In vivo inhibition of NLRP3 in LPS/ATP-induced C57BL/6JRi mouse peritonitis model assessed as reduction in IL-1beta level at 0.05 mg/kg, po preadministered with compound for 3 hrs followed by LPS stimulation for 2 hrs and measured 15 mins after ATP addition; type: functional, organism-based; conditions: time 315.0 min
[5] = molecular target: NACHT, LRR and PYD domains-containing protein 3 (Mus musculus) (UniProt Q8R4B8); experiment: In vivo inhibition of NLRP3 in LPS/ATP-induced C57BL/6JRi mouse peritonitis model assessed as reduction in IL-1beta level at 0.0083 mg/kg, po preadministered with compound for 3 hrs followed by LPS stimulation for 2 hrs and measured 15 mins after ATP addition; type: functional, organism-based; conditions: time 315.0 min
Pyrin = molecular target: T2, Pyrin (Homo sapiens, UniProt O15553); experiment: Inhibition of pyrin inflammasome activation in human U-937 cells assessed as IL-1beta secretion preincubated for 1 hr followed by BAA473 addition and measured after 4 hrs; type: cell-based
T2 sequence (O15553 whole entry): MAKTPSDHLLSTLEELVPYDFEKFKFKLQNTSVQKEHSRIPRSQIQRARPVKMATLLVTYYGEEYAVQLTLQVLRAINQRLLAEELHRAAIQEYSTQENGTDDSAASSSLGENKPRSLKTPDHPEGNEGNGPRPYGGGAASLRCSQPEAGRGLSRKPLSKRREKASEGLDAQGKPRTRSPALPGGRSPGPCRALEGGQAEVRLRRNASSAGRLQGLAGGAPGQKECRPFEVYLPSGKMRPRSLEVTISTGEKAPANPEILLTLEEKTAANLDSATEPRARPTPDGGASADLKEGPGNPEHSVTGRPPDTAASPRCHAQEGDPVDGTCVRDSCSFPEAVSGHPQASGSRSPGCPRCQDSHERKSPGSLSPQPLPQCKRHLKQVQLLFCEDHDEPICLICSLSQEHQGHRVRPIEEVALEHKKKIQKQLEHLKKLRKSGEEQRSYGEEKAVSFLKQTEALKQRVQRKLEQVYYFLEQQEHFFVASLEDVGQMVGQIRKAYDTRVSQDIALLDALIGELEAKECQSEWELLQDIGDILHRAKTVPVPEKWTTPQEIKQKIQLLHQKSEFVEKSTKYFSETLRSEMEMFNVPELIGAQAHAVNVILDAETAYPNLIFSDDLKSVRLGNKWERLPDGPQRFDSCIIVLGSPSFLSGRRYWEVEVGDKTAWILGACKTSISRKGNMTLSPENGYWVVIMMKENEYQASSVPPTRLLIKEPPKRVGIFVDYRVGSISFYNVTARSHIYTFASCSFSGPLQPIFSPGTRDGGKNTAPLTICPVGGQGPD

[6] = molecular target: NACHT, LRR and PYD domains-containing protein 3 (Mus musculus) (UniProt Q8R4B8); experiment: In vivo inhibition of NLRP3 in LPS-induced C57BL/6JRi mouse neuroinflammation model assessed as reduction in blood IL-1beta level at 2 mg/kg, po pretreated with LPS for 23 hrs followed by compound addition for 1 hr prior to second dose of LPS addition and measured after 4 hrs; type: functional, organism-based; conditions: time 5.0 hrs
[7] = molecular target: NACHT, LRR and PYD domains-containing protein 3 (Mus musculus) (UniProt Q8R4B8); experiment: In vivo inhibition of NLRP3 in LPS/ATP-induced C57BL/6JRi mouse peritonitis model assessed as reduction in IL-1beta level at 2 mg/kg, po preadministered with compound for 3 hrs followed by LPS stimulation for 2 hrs and measured 15 mins after ATP addition; type: functional, organism-based; conditions: time 315.0 min
[8] = molecular target: NACHT, LRR and PYD domains-containing protein 3 (Mus musculus) (UniProt Q8R4B8); experiment: In vivo inhibition of NLRP3 in LPS-induced C57BL/6JRi mouse neuroinflammation model assessed as reduction in IL-1beta level in CSF at 0.2 mg/kg, po pretreated with LPS for 23 hrs followed by compound addition for 1 hr prior to second dose of LPS addition and measured after 4 hrs; type: functional, organism-based; conditions: time 5.0 hrs
[9] = molecular target: NACHT, LRR and PYD domains-containing protein 3 (Mus musculus) (UniProt Q8R4B8); experiment: In vivo inhibition of NLRP3 in LPS-induced C57BL/6JRi mouse neuroinflammation model assessed as reduction in IL-1beta level in CSF at 2 mg/kg, po pretreated with LPS for 23 hrs followed by compound addition for 1 hr prior to second dose of LPS addition and measured after 4 hrs; type: functional, organism-based; conditions: time 5.0 hrs
[10] = molecular target: NACHT, LRR and PYD domains-containing protein 3 (Mus musculus) (UniProt Q8R4B8); experiment: In vivo inhibition of NLRP3 in LPS/ATP-induced C57BL/6JRi mouse peritonitis model assessed as reduction in IL-1beta level at 0.3 mg/kg, po preadministered with compound for 3 hrs followed by LPS stimulation for 2 hrs and measured 15 mins after ATP addition; type: functional, organism-based; conditions: time 315.0 min
[11] = molecular target: NACHT, LRR and PYD domains-containing protein 3 (Mus musculus) (UniProt Q8R4B8); experiment: In vivo inhibition of NLRP3 in LPS-induced C57BL/6JRi mouse neuroinflammation model assessed as reduction in blood IL-1beta level at 0.02 mg/kg, po pretreated with LPS for 23 hrs followed by compound addition for 1 hr prior to second dose of LPS addition and measured after 4 hrs; type: functional, organism-based; conditions: time 5.0 hrs
[12] = molecular target: NACHT, LRR and PYD domains-containing protein 3 (Mus musculus) (UniProt Q8R4B8); experiment: In vivo inhibition of NLRP3 in LPS-induced C57BL/6JRi mouse neuroinflammation model assessed as reduction in blood IL-1beta level at 0.2 mg/kg, po pretreated with LPS for 23 hrs followed by compound addition for 1 hr prior to second dose of LPS addition and measured after 4 hrs; type: functional, organism-based; conditions: time 5.0 hrs
[13] = molecular target: NACHT, LRR and PYD domains-containing protein 3 (Mus musculus) (UniProt Q8R4B8); experiment: In vivo inhibition of NLRP3 in LPS/ATP-induced C57BL/6JRi mouse peritonitis model assessed as reduction in IL-1beta level at 3 mg/kg, po preadministered with compound for 3 hrs followed by LPS stimulation for 2 hrs and measured 15 mins after ATP addition; type: functional, organism-based; conditions: time 315.0 min
[14] = molecular target: NACHT, LRR and PYD domains-containing protein 3 (Mus musculus, UniProt Q8R4B8); experiment: Inhibition of NLRP3 inflammasome in C57BL/6J mouse whole blood assessed as reduction in LPS/ATP induced IL-1beta secretion preincubated for 60 mins followed by LPS addition for 4 hrs prior to ATP addition for 30 mins by HTRF method; type: tissue-based
[15] = molecular target: NACHT, LRR and PYD domains-containing protein 3 (Mus musculus) (UniProt Q8R4B8); experiment: In vivo inhibition of NLRP3 in LPS-induced C57BL/6JRi mouse neuroinflammation model assessed as reduction in IL-1beta level in CSF at 0.02 mg/kg, po pretreated with LPS for 23 hrs followed by compound addition for 1 hr prior to second dose of LPS addition and measured after 4 hrs; type: functional, organism-based; conditions: time 5.0 hrs

Chain of NACHT, LRR and PYD domains-containing protein 3 (Mus musculus) (Q8R4B8 whole entry, the tested form may be a part): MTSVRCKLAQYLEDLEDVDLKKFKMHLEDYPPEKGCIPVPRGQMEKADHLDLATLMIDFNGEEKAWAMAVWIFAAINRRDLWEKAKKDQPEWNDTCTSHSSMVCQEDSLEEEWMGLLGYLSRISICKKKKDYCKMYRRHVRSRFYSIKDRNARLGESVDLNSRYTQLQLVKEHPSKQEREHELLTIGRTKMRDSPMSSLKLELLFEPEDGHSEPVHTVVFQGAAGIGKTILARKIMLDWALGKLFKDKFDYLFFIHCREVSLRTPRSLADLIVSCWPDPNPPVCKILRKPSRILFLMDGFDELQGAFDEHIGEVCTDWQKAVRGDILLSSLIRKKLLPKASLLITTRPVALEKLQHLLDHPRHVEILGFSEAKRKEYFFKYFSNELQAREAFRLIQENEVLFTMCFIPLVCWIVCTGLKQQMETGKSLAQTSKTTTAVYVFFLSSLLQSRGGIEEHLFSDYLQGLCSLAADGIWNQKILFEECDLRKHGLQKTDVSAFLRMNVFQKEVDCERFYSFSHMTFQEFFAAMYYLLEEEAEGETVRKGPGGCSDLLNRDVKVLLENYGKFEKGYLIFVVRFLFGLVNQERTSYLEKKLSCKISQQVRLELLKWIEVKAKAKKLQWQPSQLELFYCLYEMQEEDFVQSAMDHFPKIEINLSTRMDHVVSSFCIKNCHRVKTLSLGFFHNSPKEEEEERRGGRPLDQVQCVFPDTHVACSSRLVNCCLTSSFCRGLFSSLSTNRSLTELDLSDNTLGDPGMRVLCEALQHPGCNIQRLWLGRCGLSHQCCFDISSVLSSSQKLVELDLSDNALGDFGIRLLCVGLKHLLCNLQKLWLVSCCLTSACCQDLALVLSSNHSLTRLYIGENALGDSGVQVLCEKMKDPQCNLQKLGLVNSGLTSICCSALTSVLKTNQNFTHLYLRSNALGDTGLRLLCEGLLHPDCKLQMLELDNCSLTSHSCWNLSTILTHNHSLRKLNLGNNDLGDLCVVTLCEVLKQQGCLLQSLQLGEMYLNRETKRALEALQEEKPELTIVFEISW
Chain of NACHT, LRR and PYD domains-containing protein 3 (Q8R4B8 whole entry, the tested form may be a part): as above
Chain of Sodium-dependent serotonin transporter (Homo sapiens) (P31645 whole entry, looked up): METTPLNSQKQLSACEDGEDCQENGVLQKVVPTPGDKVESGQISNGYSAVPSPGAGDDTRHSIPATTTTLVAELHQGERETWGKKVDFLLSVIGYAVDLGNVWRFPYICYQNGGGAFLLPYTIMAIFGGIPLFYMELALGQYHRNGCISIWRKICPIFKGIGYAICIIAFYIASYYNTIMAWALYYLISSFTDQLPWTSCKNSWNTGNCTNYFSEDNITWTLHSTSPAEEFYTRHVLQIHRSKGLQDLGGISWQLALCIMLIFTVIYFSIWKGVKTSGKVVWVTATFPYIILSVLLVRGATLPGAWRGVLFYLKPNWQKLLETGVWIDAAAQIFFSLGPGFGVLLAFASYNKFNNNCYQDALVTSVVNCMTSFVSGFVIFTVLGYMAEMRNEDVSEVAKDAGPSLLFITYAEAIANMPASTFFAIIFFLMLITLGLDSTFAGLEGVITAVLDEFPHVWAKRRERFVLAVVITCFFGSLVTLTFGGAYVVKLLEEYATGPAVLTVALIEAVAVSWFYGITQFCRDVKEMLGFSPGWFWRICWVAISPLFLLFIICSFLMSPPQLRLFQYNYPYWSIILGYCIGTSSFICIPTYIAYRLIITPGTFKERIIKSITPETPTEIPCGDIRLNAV
Chain of NLR family CARD domain-containing protein 4 (Homo sapiens) (Q9NPP4 whole entry, the tested form may be a part): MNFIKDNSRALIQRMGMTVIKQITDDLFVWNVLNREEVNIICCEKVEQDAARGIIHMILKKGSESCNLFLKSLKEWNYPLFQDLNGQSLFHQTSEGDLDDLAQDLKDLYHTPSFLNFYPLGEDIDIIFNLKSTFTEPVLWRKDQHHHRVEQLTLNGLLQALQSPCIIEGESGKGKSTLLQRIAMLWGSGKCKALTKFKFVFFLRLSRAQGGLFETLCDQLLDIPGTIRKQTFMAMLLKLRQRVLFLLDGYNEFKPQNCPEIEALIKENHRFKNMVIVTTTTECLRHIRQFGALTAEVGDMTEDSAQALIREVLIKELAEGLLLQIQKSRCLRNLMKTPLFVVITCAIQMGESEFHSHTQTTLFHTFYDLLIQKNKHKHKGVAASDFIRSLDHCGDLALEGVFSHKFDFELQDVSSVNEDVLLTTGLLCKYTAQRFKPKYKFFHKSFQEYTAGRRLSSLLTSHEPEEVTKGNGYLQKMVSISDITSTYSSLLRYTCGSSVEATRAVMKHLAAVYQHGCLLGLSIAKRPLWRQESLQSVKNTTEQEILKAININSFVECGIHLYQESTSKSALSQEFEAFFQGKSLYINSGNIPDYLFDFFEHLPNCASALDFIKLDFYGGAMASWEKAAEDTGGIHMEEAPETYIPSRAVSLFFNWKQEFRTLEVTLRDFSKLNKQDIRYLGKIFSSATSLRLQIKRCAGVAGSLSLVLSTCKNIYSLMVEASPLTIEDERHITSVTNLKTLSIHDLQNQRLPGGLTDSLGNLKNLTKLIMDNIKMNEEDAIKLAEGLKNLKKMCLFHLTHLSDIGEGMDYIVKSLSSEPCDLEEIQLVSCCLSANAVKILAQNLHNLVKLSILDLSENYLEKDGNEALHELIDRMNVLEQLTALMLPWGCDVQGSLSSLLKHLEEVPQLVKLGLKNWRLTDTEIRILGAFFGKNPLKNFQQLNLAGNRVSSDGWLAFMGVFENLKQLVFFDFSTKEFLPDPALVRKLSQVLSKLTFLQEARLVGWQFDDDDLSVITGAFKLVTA

Activity [1]: Active | Activity [2]: Active | inhibition [3]: inactive | inhibition [4]: 43.9% | inhibition [5]: 16% | IC50 (Pyrin): > 33000 nM | inhibition [6]: 94.3% | inhibition [7]: 99.6% | inhibition [8]: 51.6% | inhibition [9]: 96.5% | inhibition [10]: 98.3% | inhibition [11]: 42.5% | inhibition [12]: 87.7% | inhibition [13]: 99.4% | IC50 [14]: 2.5 nM | inhibition [15]: -2%
Compound: CCN1CCC[C@@H](Nc2ccc(-c3c(C)cc(C(F)(F)F)cc3O)nn2)C1

inhibition [13]: 99.6% | IC50 [14]: 2.1 nM
Compound: Cc1cc(C(F)(F)F)cc(O)c1-c1ccc(N[C@@H]2CCCN(CCO)C2)nn1

inhibition [13]: 99% | IC50 [14]: 5.8 nM
Compound: Cc1cc(C)c(-c2ccc(N[C@@H]3CCCN(C)C3)nn2)c(O)c1

inhibition [13]: 99.5%
Compound: Cc1cc(C(F)(F)F)cc(O)c1-c1ccc(N[C@@H]2CCCN(C)C2)nn1
